Data published in patent US20250017889A1, “INHIBITORS OF P1B-TYPE ATPASES” (THE CURATORS OF THE UNIVERSITY OF MISSOURI, priority 2021, published 2025).

Key:
[1] = system: ΔcopA/ΔcopB strain of S. aureus; assay: Growth of copper-sensitive ΔcopA/ΔcopB mutant strain of S. aureus; assay type: cell-based, Staphylococcus aureus; settings: MKV3 with copper 50 μM
Method: (§1) Methicillin-resistant Staphylococcus aureus (MRSA) is a human pathogen that expresses two Cu-transporting P1B-type ATPases, CopA and CopB, which are known to enhance the virulence of this bacterium. 19A illustrates CopA and CopB copper exporters at the plasma membrane of S. aureus. […] The growth of the ΔcopA/ΔcopB strain was inhibited by approximately 50% when copper alone (50 μM) was added to the culture medium.
(§2) Wild type MRSA expresses two copper-exporting P1B-type ATPases, CopA and CopB that are required for copper tolerance (FIG. 19A). […] The same experiment was performed using MRSA in which both CopA and CopB genes were deleted (ΔcopA/ΔcopB). Consistent with the known role of CopA and CopB in copper tolerance, the growth of the ΔcopA/ΔcopB strain was inhibited by approximately 50% when copper alone (50 μM) was added to the culture medium (FIG. 19C).

ATP7B (hATP7B) = target: T1, ATP7B (hATP7B) (Homo sapiens, UniProt P35670); assay: Tyrosinase activation in B16 ATP7A^KO cells transfected with human ATP7B; assay type: cell-based; settings: 10 μM, 24 h, ATP7A^KO melanoma cells
T1 construct: expressed in transfected cells; host or cells: B16 melanoma ATP7A^KO cells (mouse), transient transfection
T1 sequence (P35670 1-1465): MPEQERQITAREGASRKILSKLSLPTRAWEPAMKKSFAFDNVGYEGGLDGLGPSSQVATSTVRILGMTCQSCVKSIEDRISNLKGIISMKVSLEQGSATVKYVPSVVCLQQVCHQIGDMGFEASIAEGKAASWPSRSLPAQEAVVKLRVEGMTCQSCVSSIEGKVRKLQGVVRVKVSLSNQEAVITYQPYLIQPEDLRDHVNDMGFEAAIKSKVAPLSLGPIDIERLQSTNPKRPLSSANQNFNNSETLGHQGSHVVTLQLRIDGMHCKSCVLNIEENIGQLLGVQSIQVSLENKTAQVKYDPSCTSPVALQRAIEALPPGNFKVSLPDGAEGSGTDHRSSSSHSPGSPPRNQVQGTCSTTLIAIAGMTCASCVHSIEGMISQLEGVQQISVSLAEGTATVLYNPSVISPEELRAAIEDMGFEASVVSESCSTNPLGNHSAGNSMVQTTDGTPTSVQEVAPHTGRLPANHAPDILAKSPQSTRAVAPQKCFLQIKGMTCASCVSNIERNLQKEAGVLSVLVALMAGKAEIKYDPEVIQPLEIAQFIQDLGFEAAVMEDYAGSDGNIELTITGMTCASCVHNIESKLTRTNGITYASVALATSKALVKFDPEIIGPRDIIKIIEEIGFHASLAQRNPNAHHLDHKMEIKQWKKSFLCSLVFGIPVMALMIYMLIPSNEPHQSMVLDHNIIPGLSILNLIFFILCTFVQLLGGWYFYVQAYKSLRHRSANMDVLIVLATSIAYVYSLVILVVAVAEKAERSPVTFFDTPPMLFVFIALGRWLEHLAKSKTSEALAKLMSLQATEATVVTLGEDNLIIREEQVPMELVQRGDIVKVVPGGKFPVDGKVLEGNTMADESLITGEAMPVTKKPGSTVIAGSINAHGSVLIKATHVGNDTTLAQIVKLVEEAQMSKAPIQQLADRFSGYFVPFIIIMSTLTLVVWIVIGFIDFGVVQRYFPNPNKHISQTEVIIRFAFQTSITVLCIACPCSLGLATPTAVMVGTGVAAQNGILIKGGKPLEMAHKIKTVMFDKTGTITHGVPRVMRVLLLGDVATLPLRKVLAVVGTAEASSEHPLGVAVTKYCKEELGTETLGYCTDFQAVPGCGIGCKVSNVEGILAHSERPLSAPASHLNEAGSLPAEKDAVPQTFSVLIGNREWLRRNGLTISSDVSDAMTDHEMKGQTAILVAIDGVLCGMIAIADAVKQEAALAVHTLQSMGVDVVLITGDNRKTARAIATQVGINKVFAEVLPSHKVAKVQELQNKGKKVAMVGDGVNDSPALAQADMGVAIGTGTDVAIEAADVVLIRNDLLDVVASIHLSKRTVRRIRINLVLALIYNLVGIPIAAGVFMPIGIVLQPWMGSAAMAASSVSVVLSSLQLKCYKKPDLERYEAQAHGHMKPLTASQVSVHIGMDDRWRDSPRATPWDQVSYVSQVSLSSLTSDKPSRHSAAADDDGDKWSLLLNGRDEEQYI
Description: Prior studies have shown that exogenously expressed ATP7B can activate tyrosinase in cells lacking ATP7A. For these studies, a B16 melanoma cell model was used in which tyrosinase activity can be detected by in situ oxidation of L-DOPA to DOPAchrome (10A). As shown earlier, B16 cells deleted for the ATP7A gene (ATP7A^KO) completely lack tyrosinase activity (10B). […] Quantification of tyrosinase activity in these cells is shown (10G). Data represent mean±SEM; ****p<0.0001 of three independent replicates.

[2] = system: wild type S. aureus (CopA and CopB); assay: Growth of wild type methicillin-resistant Staphylococcus aureus; assay type: cell-based
Method: as §1, §2

[3] = system: 4T1, B16 and HEK293 cell lines; assay: Cellular copper concentrations by ICP-MS; assay type: cell-based; settings: 10 μM, 24 hours
Method: Since ATP7A functions in copper export from cells, an inhibitor of ATP7A activity would be expected to increase cellular copper concentrations. […] After 24 hours, cellular copper concentrations were measured using inductively coupled plasma mass spectroscopy (ICP-MS).

4T1 mammary cancer cells = assay: Orthotopic 4T1 mammary tumor growth and lung metastasis in mice; assay type: in vivo, BALB/c mice
LOX activity = LOX activity secreted into conditioned media of cancer cells; assay type: cell-based; settings: 5 μM, 4 days
[4] = system: 4T1 breast cancer cells and LLC lung cancer cells; assay: In vitro scratch assay of cell motility (gap closure); assay type: cell-based; settings: 10 μM
Description: LOX activity is known to be important for the motility of cancer cells. In this assay, a gap (scratch) was created in a confluent monolayer of cells and closure of the gap in the presence or absence of MKV3 was monitored by video microscopy. […] Dashed lines indicate scratch starting points (12A and 12C). […] The requirement for ATP7A in cancer cell motility is consistent with its role in activation of lysyl oxidase enzymes.

[5] = intravenous 50 mg/kg every Tuesday and Thursday for 3 weeks
[6] = subcutaneous 50 mg/kg every Monday, Wednesday and Friday for 3 weeks

Compound: N#CC(C(=O)Nc1cccc(C(F)(F)F)c1)C(=S)Nc1ccccc1Cl (centres unmarked) [MKV3]
- copper sensitivity in the ΔcopA/ΔcopB strain [1]: did not increase copper sensitivity
- activation of tyrosinase activity by ATP7B (ATP7B (hATP7B)): prevented activation of tyrosinase activity
- sensitivity of wild type S. aureus to silver [2]: increases the sensitivity
- growth of wild type S. aureus ([2]; MKV3 0.5 μM alone): not affected
- growth of wild type S. aureus ([2]; MKV3 0.5 μM and copper 50 μM in combination): significant inhibition of growth
- cellular copper concentrations [3]: significantly increased
- metastatic lung burden (4T1 mammary cancer cells; [5]): reduced
- weights of 4T1 primary tumors (4T1 mammary cancer cells; [5]): reduced
- lung metastasis (4T1 mammary cancer cells; [6]): significantly reduced
- primary tumor growth (4T1 mammary cancer cells; [6]): significantly reduced
- LOX activity in conditioned media (LOX activity; 4T1 breast cancer cells): reduction in LOX activity
- LOX activity in conditioned media (LOX activity; LLC lung cancer cells): reduction in LOX activity
- rate of gap closure ([4]; 4T1 cells): significantly reduced
- rate of gap closure ([4]; LLC cells): significantly reduced
